Measured values taken from publication PMC12057046, “Elucidation of short linear motif-based interactions of the MIT and rhodanese domains of the ubiquitin-specific protease 8” (Biology Direct, 2025).

molecular target: T1, USP8 Rhod domain (Homo sapiens, UniProt P40818); assay: SPOT array of predicted peptides from known interactors, USP8 Rhod domain; assay type: binding; conditions: GST-tagged Rhod 150 µM; positive control KIAA1614_568 − 583; array of 42 predicted peptides
T1 construct: USP8 Rhod (174–317) (UniProt: P40818); GST (cleaved yes); made in house; host or cells: Escherichia coli BL21-Gold (DE3)
T1 sequence (P40818 174-317): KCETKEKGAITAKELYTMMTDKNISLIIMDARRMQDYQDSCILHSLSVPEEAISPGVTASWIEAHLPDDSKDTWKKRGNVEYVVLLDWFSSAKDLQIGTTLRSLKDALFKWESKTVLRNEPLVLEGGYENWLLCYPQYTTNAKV
Description: The results therefore support that the USP8 Rhod domain binds to two distinct types of motifs (Fig. 4A, B). We used the motifs to scan for matching motifs in previously reported interactors using the SLiMSearch algorithm (Supplementary Table S8 A). As there was no clear match for the TET3-type motif except from only one hit, we focused on the KIAA1614-type motif. […] Both TP63 and USP21 are previously reported USP8 substrates, and the interactions may potentially contribute to substrate targeting. […] As the SHANK3 peptides (351-[…]−365 and 392-[…]−406) are closely located in the primary structure of SHANK3, it is tempting to speculate that both motifs contribute to the interactions between the full-length proteins by increasing the local concentration of binding motifs. […] Taken together, we find that the USP8 Rhod domain is a peptide binding domain that can be bound by peptides of two distinct types of motifs, with the Rx[LI]xGxxxPxxL motif and variants thereof being found in known USP8 substrates.
SPOT array alanine scanning of peptides was designed, and cellulose-bound peptides were synthesized using Fluorenylmethyloxycarbonyl (Fmoc) solid phase synthesis with a MultiPep synthesizer (INTAVIS Peptide Services, Tübingen, Germany). The membranes of predicted peptides were purchased by JPT Peptide Technologies (Berlin, Germany). The membranes were incubated with blocking buffer containing 5% skim milk in TBST (50 mM Tris, 150 mM NaCl pH 7.5, 0.05% Tween-20) for two hours at room temperature. The blocked membranes were incubated with GST-tagged proteins (100 µM for MIT domain and 150 µM for the Rhodanese domain) in blocking buffer overnight at 4 °C. After rinsed with TBST the membranes were incubated with HRP-conjugated anti-GST antibody (Cytiva, RPN1236; 1:3000 dilution) in blocking buffer for 1 h at 4 °C and subsequently rinsed with TBST to remove any excess antibody. The ECL reagent (Clarity Max Western ECL substrate, 1705062, BioRad) was used for chemiluminescence read-out with the ChemiDoc Imaging system (BioRad). The images were analysed with Fiji (ImageJ2 version 2.9.0). SLiMSearch4 was used to design the peptide arrays with known interactors predicted to contain the motifs. The background signal intensity was subtracted, and the corrected signal intensities were normalized to the positive control and presented as percentage.

Substance | SPOT intensity in words
RAB3IP82 − 95: SSPxxL containing peptide from the RAB3A interacting protein (QPVYSSPRRLNCAE) | Weaker signals
SLRSLPHQLLLQRLQ [SHANK3 peptide] | Weaker signals

same assay, conditions: Rhod-Peptide screening, SPOT array of predicted peptides; KIAA1614 positive control = 100

Substance | Percentage (%) normalized to highest intensity and corrected for background [%]
AKPPGPGVLMIHPPG | -1.54
AQPLTPGVLMVQPAA | -0.828
AQPPAPGVLMAQPLT | -1.21
AQPPTPGVLMVHPSA | -1.3
ASQAVPTFLMATAAA | -0.581
CGNQERKLEGSINDI | 11
DPSAPPSLLLLLLAQ | 0.93
DPVESRGLPGPEDDK | -0.521
EINLQRNIAGKVVTP | -1.5
FDQPHPQGLLPCQPQ | 4.4
GKPPTPGVLMVHPPP | -1.22
GMERVLGGLSSPLRLL [KIAA1614 Positive control] | 100
GPSTSRILSGWEGPS | -0.117
GVSCYRGLTGFGSRS | 52
HAVSSPDPLLCSDVT | -0.0499
HEFSSPSHLLRTPSS | 45
HPNTPRGLSGWEGPS | 2.19
IATYRRLLEGEEHRL | 5.44
MAQALPWLLLWMGAG | 1.42
MPSGSRLRLVELGLGL [Random KIAA1614 Negative control] | 3.69

Substance | Percentage (%) normalized to highest intensity and corrected for background [%]
PEKGARSLAGPPPHF | -1.37
PGPPYPPQLMTPSKL | -0.836
PIPSSSPPPLSSPL | -1.42
PKPPRPASLLRHAPH | 5
PRPTAPKPLLPRREE | 0.0399
PVYSRPTVLMRAPPA | 4.31
QPVYSSPRRLNCAE | 17
RALLERCLKGEGEIE | 2
SCISEWEQKIPTYN | 6
SLASVRGLQGRSMSV | 5
SLRRLGGFPGPPTLFS | 39
SLRSLPHQLLLQRLQ | 7
SPARSSPELLPSGV | 1.56
SPEKSSPQALVPNG | 1
SPLGRPESLLQSNTL | -0.544
SQLPSSPAQLSCRS | 9
SRSLSPTRLLSLPPD | 6.64
SSNSHRSLDGLSRTQ | 5.49
SSTSTRHLQGVEFEM | -1.73
